Data from patent publication US9708305B2, “Substituted 1,2,3,4-tetrahydroisoquinoline derivatives for the treatment of hormone-dependent diseases” (UNIVERSITÉ LAVAL, priority 2013, dated 2017).
Several values for one entry are separate records, joined by “and”; a condition that tells them apart may be missing. Equal entries are not always repeated.

Target: T1, STS (Homo sapiens, UniProt P08842)
T1 construct: expressed in transfected cells; host or cells: HEK-293 cells stably transfected with STS (G418 selection), obtained from Dr. Van Luu-The; used as freeze-thaw homogenate
T1 sequence (P08842 22-583): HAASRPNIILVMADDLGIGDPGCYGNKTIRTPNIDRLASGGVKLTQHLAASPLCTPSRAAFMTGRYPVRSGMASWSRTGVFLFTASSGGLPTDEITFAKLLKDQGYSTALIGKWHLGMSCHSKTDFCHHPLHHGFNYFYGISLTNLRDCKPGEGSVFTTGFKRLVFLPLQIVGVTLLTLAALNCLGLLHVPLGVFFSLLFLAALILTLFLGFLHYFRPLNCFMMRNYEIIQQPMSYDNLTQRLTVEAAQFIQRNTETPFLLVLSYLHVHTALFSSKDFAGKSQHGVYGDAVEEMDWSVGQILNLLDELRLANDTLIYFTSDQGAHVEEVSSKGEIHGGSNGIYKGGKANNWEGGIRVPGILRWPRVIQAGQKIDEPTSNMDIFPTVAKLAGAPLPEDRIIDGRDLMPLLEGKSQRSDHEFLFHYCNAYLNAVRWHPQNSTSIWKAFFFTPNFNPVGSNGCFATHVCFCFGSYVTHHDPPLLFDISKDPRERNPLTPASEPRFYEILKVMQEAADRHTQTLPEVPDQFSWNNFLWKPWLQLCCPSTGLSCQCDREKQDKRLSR
Test: STS inhibition of libraries 1-EO to 4-EO, homogenate of STS transfected HEK-293 cells
Type: biochemical
Details: mean ± SEM, triplicate
Method: The enzymatic assay was performed using homogenate of STS transfected HEK-293 cells as the source of enzyme activity. The transformation of [^3H]-E1S into [^3H]-E1 was measured using scintillation counting of labeled E1S and E1 in the aqueous and organic phases, respectively. Newly synthesized sulfamate compounds were tested at two concentrations (0.1 μM and 1 μM). Libraries 1-EO and 2-EO were synthesized using the p- and m-benzamide spacers as 1st level of molecular diversity and the same wide variety of secondary amines as 2nd level of diversity (Table 2), which were chosen in a somewhat random fashion while including a different pattern, format and heteroatom. […] Compounds 1-EO-07, 1-EO-09 and 1-EO-10 represent a starting point for optimization, as they show more than 36% of inhibition when tested at a concentration of 0.1 μM. These compounds have relatively hydrophobic substituents compared to the rest of the library members. […] The average log P value for the rest of the library, excluding these three compounds, is 1.93.
This enzymatic assay was carried out according to a procedure previously described for the transformation of substrate [^3H]-E1S (100 μM) into [^3H]-E1 by homogenated HEK-293 cells over-expressing the enzyme activity.^56,73

SMILES	STS inhibition (%) (0.1 μM)	STS inhibition (%) (1 μM)	STS inhibition (%) (1 μM, listed as 1-EO-9, 1 µM)	inhibition at 0.1 µM (0.1 μM)	inhibition at 1 µM (1 μM)
CN(C)CCN(CCN(C)C)Cc1ccc(C(=O)N2CCc3ccc(OS(N)(=O)=O)cc3C2)cc1 [3-EO-08]	3.8 ± 9.6%	15.9 ± 21.5%	–	–	–
NS(=O)(=O)Oc1ccc2c(c1)CN(C(=O)c1cccc(CN3CCC(Cc4ccccc4)CC3)c1)CC2 [2-EO-07]	1.4 ± 0.6%	41.9 ± 2.7%	–	–	–
CN(C)CCCN(Cc1ccccc1)Cc1cccc(C(=O)N2CCc3ccc(OS(N)(=O)=O)cc3C2)c1 [4-EO-05]	23.8 ± 4.1%	26.0 ± 8.5%	–	–	–
CN1CCN(Cc2cccc(C(=O)N3CCc4ccc(OS(N)(=O)=O)cc4C3)c2)CC1 [2-EO-04]	0.0 ± 12.2%	12.6 ± 2.3%	–	–	–
CCN(Cc1ccc(C(=O)N2CCc3ccc(OS(N)(=O)=O)cc3C2)cc1)Cc1cccc(Br)c1 [3-EO-12]	80% and 80.2 ± 8.0%	97.2 ± 0.6%	–	–	–
CCCN(CCC)Cc1cccc(C(=O)N2CCc3ccc(OS(N)(=O)=O)cc3C2)c1 [2-EO-10]	8.3 ± 0.0%	54.8 ± 1.2%	–	–	–
NS(=O)(=O)Oc1ccc2c(c1)CN(C(=O)c1ccc(CN3CCN(c4ncccn4)CC3)cc1)CC2 [1-EO-06]	14.7 ± 3.6%	41.9 ± 0.8%	–	–	–
CN(CCN1CCCCC1)Cc1ccc(C(=O)N2CCc3ccc(OS(N)(=O)=O)cc3C2)cc1 [3-EO-06]	0.3 ± 1.7%	26.8 ± 13.5%	–	–	–
NS(=O)(=O)Oc1ccc2c(c1)CN(C(=O)c1cccc(CN(CCO)Cc3ccccc3)c1)CC2 [4-EO-02]	26.7 ± 7.2%	32.4 ± 6.3%	–	–	–
CN(C)CCN(Cc1ccccc1)Cc1cccc(C(=O)N2CCc3ccc(OS(N)(=O)=O)cc3C2)c1 [4-EO-04]	0.0 ± 0.0%	28.6 ± 2.2%	–	–	–
CC(C)CCN(CCC(C)C)Cc1cccc(C(=O)N2CCc3ccc(OS(N)(=O)=O)cc3C2)c1 [4-EO-09]	32.3 ± 2.9%	–	–	–	–
CN(C)CCN(Cc1ccccc1)Cc1ccc(C(=O)N2CCc3ccc(OS(N)(=O)=O)cc3C2)cc1 [3-EO-04]	13.9 ± 4.8%	57.8 ± 3.4%	–	–	–
CN(CCCN1CCCCC1)Cc1cccc(C(=O)N2CCc3ccc(OS(N)(=O)=O)cc3C2)c1 [4-EO-07]	24.1 ± 0.4%	30.6 ± 6.9%	–	–	–
NS(=O)(=O)Oc1ccc2c(c1)CN(C(=O)c1cccc(CN3CCCCC3)c1)CC2 [2-EO-02]	1.0 ± 5.1%	11.9 ± 2.6%	–	–	–
CCN(Cc1ccc(Br)cc1)Cc1cccc(C(=O)N2CCc3ccc(OS(N)(=O)=O)cc3C2)c1 [4-EO-13]	24.2 ± 4.9%	–	–	–	–
CN1CCN(Cc2ccc(C(=O)N3CCc4ccc(OS(N)(=O)=O)cc4C3)cc2)CC1 [1-EO-04]	2.9 ± 0.5%	23.3 ± 1.3%	–	–	–
NS(=O)(=O)Oc1ccc2c(c1)CN(C(=O)c1ccc(CN(Cc3ccccc3)Cc3ccco3)cc1)CC2 [3-EO-11]	91% and 90.8 ± 2.6%	98.2 ± 0.4%	–	–	–
CCCN(Cc1ccccc1)Cc1ccc(C(=O)N2CCc3ccc(OS(N)(=O)=O)cc3C2)cc1 [3-EO-01]	64.8 ± 3.8%	94.3 ± 0.3%	–	–	–
NS(=O)(=O)Oc1ccc2c(c1)CN(C(=O)c1ccc(CN3CCSCC3)cc1)CC2 [1-EO-03]	32.3 ± 1.0%	80.2 ± 0.9%	–	–	–
CN(C)CCN(CCN(C)C)Cc1cccc(C(=O)N2CCc3ccc(OS(N)(=O)=O)cc3C2)c1 [4-EO-08]	0.0 ± 0.0%	17.1 ± 7.6%	–	–	–
NS(=O)(=O)Oc1ccc2c(c1)CN(C(=O)c1cccc(CN3CCc4ccccc4C3)c1)CC2 [4-EO-10]	24.1 ± 5.6%	50.2 ± 1.9%	–	–	–
CCN(Cc1ccccc1)Cc1cccc(C(=O)N2CCc3ccc(OS(N)(=O)=O)cc3C2)c1 [2-EO-09]	17% and 17.3 ± 2.5%	69.0 ± 0.0%	–	–	–
CCCN(Cc1ccccc1)Cc1cccc(C(=O)N2CCc3ccc(OS(N)(=O)=O)cc3C2)c1 [4-EO-01]	23.1 ± 7.5%	67.4 ± 10.9%	–	–	–

SMILES	STS inhibition (%) (0.1 μM)	STS inhibition (%) (1 μM)	STS inhibition (%) (1 μM, listed as 1-EO-9, 1 µM)	inhibition at 0.1 µM (0.1 μM)	inhibition at 1 µM (1 μM)
CCN(Cc1ccncc1)Cc1ccc(C(=O)N2CCc3ccc(OS(N)(=O)=O)cc3C2)cc1 [3-EO-16]	47.0 ± 1.8%	86.6 ± 1.8%	–	–	–
NS(=O)(=O)Oc1ccc2c(c1)CN(C(=O)c1cccc(CN3CCC(N4CCCCC4)CC3)c1)CC2 [2-EO-08]	0.0 ± 2.4%	8.0 ± 1.1%	–	–	–
NS(=O)(=O)Oc1ccc2c(c1)CN(C(=O)c1cccc(CN3CCN(c4ncccn4)CC3)c1)CC2 [2-EO-06]	1.6 ± 1.6%	24.4 ± 0.4%	–	–	–
CCN(Cc1cccnc1)Cc1cccc(C(=O)N2CCc3ccc(OS(N)(=O)=O)cc3C2)c1 [4-EO-15]	14.3 ± 4.7%	33.5 ± 5.8%	–	–	–
CCN(Cc1ccccc1)Cc1ccc(C(=O)N2CCc3ccc(OS(N)(=O)=O)cc3C2)cc1 [1-EO-09]	–	83.6 ± 0.2%	84%	–	–
CCN(Cc1ccc(C(=O)N2CCc3ccc(OS(N)(=O)=O)cc3C2)cc1)Cc1ccccn1 [3-EO-14]	42.5 ± 3.5%	87.7 ± 0.7%	–	–	–
CCN(Cc1cccc(Br)c1)Cc1cccc(C(=O)N2CCc3ccc(OS(N)(=O)=O)cc3C2)c1 [4-EO-12]	20.9 ± 7.1%	24.9 ± 0.6%	–	–	–
CCN(Cc1ccccc1)Cc1ccc(S(=O)(=O)N2CCc3ccc(OS(N)(=O)=O)cc3C2)cc1 [Compound 14]	–	–	–	10%	31%
CCN(Cc1ccc(Br)cc1)Cc1ccc(C(=O)N2CCc3ccc(OS(N)(=O)=O)cc3C2)cc1 [3-EO-13]	78% and 78.2 ± 1.7%	95.9 ± 0.6%	–	–	–
CN(CCN1CCCCC1)Cc1cccc(C(=O)N2CCc3ccc(OS(N)(=O)=O)cc3C2)c1 [4-EO-06]	24.5 ± 7.4%	30.8 ± 6.4%	–	–	–
CN(CCCN1CCCCC1)Cc1ccc(C(=O)N2CCc3ccc(OS(N)(=O)=O)cc3C2)cc1 [3-EO-07]	17.4 ± 12.3%	40.7 ± 8.6%	–	–	–
CC(C)CCN(CCC(C)C)Cc1ccc(C(=O)N2CCc3ccc(OS(N)(=O)=O)cc3C2)cc1 [3-EO-09]	47.0 ± 13.0%	90.8 ± 1.7%	–	–	–
NS(=O)(=O)Oc1ccc2c(c1)CN(C(=O)c1cccc(CN3CCN(Cc4ccccc4)CC3)c1)CC2 [2-EO-05]	0.0 ± 3.1%	23.7 ± 0.6%	–	–	–
NS(=O)(=O)Oc1ccc2c(c1)CN(C(=O)c1ccc(CN3CCN(Cc4ccccc4)CC3)cc1)CC2 [1-EO-05]	20.8 ± 3.7%	75.8 ± 1.6%	–	–	–
NS(=O)(=O)Oc1ccc2c(c1)CN(C(=O)c1ccc(CN(CCO)Cc3ccccc3)cc1)CC2 [3-EO-02]	27.9 ± 2.6%	78.0 ± 1.1%	–	–	–
CN(C)CCCN(Cc1ccccc1)Cc1ccc(C(=O)N2CCc3ccc(OS(N)(=O)=O)cc3C2)cc1 [3-EO-05]	16.2 ± 4.6%	61.6 ± 4.9%	–	–	–
NS(=O)(=O)Oc1ccc2c(c1)CN(C(=O)c1ccc(CN3CCCCC3)cc1)CC2 [1-EO-02]	11.5 ± 2.4%	38.3 ± 3.6%	–	–	–
NS(=O)(=O)Oc1ccc2c(c1)CN(C(=O)c1ccc(CN3CCC(N4CCCCC4)CC3)cc1)CC2 [1-EO-08]	8.5 ± 1.2%	53.7 ± 4.7%	–	–	–
CCN(Cc1ccc(F)cc1)Cc1cccc(C(=O)N2CCc3ccc(OS(N)(=O)=O)cc3C2)c1 [4-EO-17]	10.9 ± 7.4%	66.5 ± 4.5%	–	–	–
CCN(Cc1ccc(C(=O)N2CCc3ccc(OS(N)(=O)=O)cc3C2)cc1)Cc1cccnc1 [3-EO-15]	35.7 ± 4.3%	85.2 ± 1.7%	–	–	–
NS(=O)(=O)Oc1ccc2c(c1)CN(C(=O)c1ccc(CN3CCC(Cc4ccccc4)CC3)cc1)CC2 [1-EO-07]	–	81.3 ± 0.5%	–	–	–
CCN(Cc1ccncc1)Cc1cccc(C(=O)N2CCc3ccc(OS(N)(=O)=O)cc3C2)c1 [4-EO-16]	33.3 ± 0.0%	52.8 ± 1.3%	–	–	–
NS(=O)(=O)Oc1ccc2c(c1)CN(C(=O)c1ccc(CN3CCOCC3)cc1)CC2 [1-EO-01]	10.9 ± 3.5%	50.6 ± 1.2%	–	–	–
